# Entries after “also recorded” stand apart in the source; their conditions may differ. Where two headings read alike, the source gives them in different places.
# Key:
# [1] = Skin permeation and delivery, Franz-type vertical diffusion cell; assay type: in vitro ADME, human; conditions: 0-8 hours
# Experimental: Skin permeation was evaluated using a custom-fabricated Franz-type vertical diffusion cell (FDC). […] Fluid samples can be withdrawn for analysis from the receptor fluid. […] Membranes were defrosted, washed and subjected to visual inspection before use. Skin delivery and permeation studies were performed on six (6) replicates per Active formulation. A finite dose was applied to the surface of the skin under nonocclusive conditions. Dose volume was 10 μl (18 mg/cm^2). The dose was spread using a blunt glass rod. Receptor chambers were inserted in a dry block with an external magnetic stir bar drive that accommodated up to 15 Franz cells per block. […] Receptor well temperature was maintained at 32±0.5° C.; skin surface temperature was maintained at 30±1.0° C. Receptor wells were sampled at three time points, namely 8 hr, 24 hr and 48 hr; 300 μl was removed, loaded in a 96-well plate, and stored at 4-8° C. prior to analysis. Samples were analyzed within 5 days of collection. There was no further preparation of the samples prior to analysis. […] The membrane was […] […] Retention of the Actives in the epidermis and delivery of Actives to the dermis was measured by extracting the Active from each layer individually at twenty-four hours using dimethyl sulfoxide (DMSO). […] After the LC-MS or UV testing was complete, samples were analyzed using ChemStation software (Agilent).
# [2] = Stability studies (shelf life, visible changes); assay type: physicochemical; conditions: visible changes; for Stability of Actives at 40° C.: 40° C. accelerated stability
# Experimental: The effects of HPBCD on the shelf life stability of each active agent is studied at pre-determined temperatures for 11 weeks. Real time stability is observed at −17° C., 5° C. and 25° C., and accelerated stability is observed at 40° C. For accelerated stability, one day at 40° C. is equivalent to one week, thus the data represents 77 weeks. […] The vials are then placed in a temperature-controlled oven or refrigerator/freezer. The compounds are checked daily and any visible changes are noted.
# [3] = Phase solubility studies; conditions: active with HPBCD; calculated using Eq. (1)
# [4] = Solubility in water (statements); assay type: physicochemical
# [5] = Differential scanning calorimetry (decomposition); assay type: physicochemical; conditions: DSC curve
# [6] = room temperature; cited from earlier work
# [7] = cited from earlier work
compound,measurement,setting,value
"C=C(C)[C@@H]1CCC(C)=C[C@H]1c1c(O)cc(CCCCC)cc1O [CBD, Cannabidiol]","delivered dose, transdermal",[1],no amount of CBD was detected as penetrating through the skin
same,Stability of Actives at 25° C.,[2]; Week 1,0
same,Stability of Actives at 25° C.,[2]; Week 2,0
same,Stability of Actives at 25° C.,[2]; Week 3,0
same,association constant (Kc) for complex formation,[3],0.42247 M⁻¹
same,solubility in water,[4],completely insoluble in water; also recorded: poor water solubility
CCOC(=O)c1ccc(N)cc1 [Benzocaine],decomposition (DSC),[5],230 °C
same,Stability of Actives at 5° C.,[2]; Week 1,0
same,Stability of Actives at 5° C.,[2]; Week 2,0
same,Stability of Actives at 5° C.,[2]; Week 3,0
same,Stability of Actives at 5° C.,[2]; Week 4,0
same,Stability of Actives at 5° C.,[2]; Week 5,0
same,Stability of Actives at 5° C.,[2]; Week 6,0
same,Stability of Actives at 5° C.,[2]; Week 7,0
same,Stability of Actives at 5° C.,[2]; Week 8,0
same,Stability of Actives at 5° C.,[2]; Week 9,0
same,Stability of Actives at 5° C.,[2]; Week 10,0
same,Stability of Actives at 5° C.,[2]; Week 11,0
same,Stability of Actives at 25° C.,[2]; Week 1,0
same,Stability of Actives at 25° C.,[2]; Week 2,0
same,Stability of Actives at 25° C.,[2]; Week 3,0
same,Stability of Actives at 25° C.,[2]; Week 4,0
same,Stability of Actives at 25° C.,[2]; Week 5,0
same,Stability of Actives at 25° C.,[2]; Week 6,0
same,Stability of Actives at 25° C.,[2]; Week 7,0
same,Stability of Actives at 25° C.,[2]; Week 8,0
same,Stability of Actives at 25° C.,[2]; Week 9,0
same,Stability of Actives at 25° C.,[2]; Week 10,0
same,Stability of Actives at 25° C.,[2]; Week 11,0
same,Stability of Actives at 40° C.,[2]; Week 1,0
same,Stability of Actives at 40° C.,[2]; Week 2,0
same,Stability of Actives at 40° C.,[2]; Week 3,0
same,Stability of Actives at 40° C.,[2]; Week 4,0
same,Stability of Actives at 40° C.,[2]; Week 5,0
same,Stability of Actives at 40° C.,[2]; Week 6,0
same,Stability of Actives at 40° C.,[2]; Week 7,0
same,Stability of Actives at 40° C.,[2]; Week 8,0
same,Stability of Actives at 40° C.,[2]; Week 9,0
same,Stability of Actives at 40° C.,[2]; Week 10,0
same,Stability of Actives at 40° C.,[2]; Week 11,0
same,association constant (Kc) for complex formation,[3],1.031 M⁻¹
OC[C@H]1O[C@@H]2O[C@H]3[C@H](O)[C@@H](O)[C@@H](O[C@H]4[C@H](O)[C@@H](O)[C@@H](O[C@H]5[C@H](O)[C@@H](O)[C@@H](O[C@H]6[C@H](O)[C@@H](O)[C@@H](O[C@H]7[C@H](O)[C@@H](O)[C@@H](O[C@H]8[C@H](O)[C@@H](O)[C@@H](O[C@H]1[C@H](O)[C@H]2O)O[C@@H]8CO)O[C@@H]7CO)O[C@@H]6CO)O[C@@H]5CO)O[C@@H]4CO)O[C@@H]3CO [β-Cyclodextrin],solubility in water,[6],approximately 19 mg/mL
"1,3-diazacyclopenta-2,4-diene [imidazole]",pKa of conjugate acid (imidazolium ion),[7],approximately 7.0

# From patent US20200347153A1, “METHODS FOR FORMING INCLUSION COMPLEXES WITH HYDROPHILIC BETA-CYCLODEXTRIN DERIVATIVES AND COMPOSITIONS THEREOF” (priority 2019, published 2020)
